Molecular target: T1, LfCE15C (Lentithecium fluviatile, UniProt A0A6G1IIU9)
T1 construct: gene K458DRAFT_349146; native signal peptide removed; secreted from Pichia pastoris SMD1168H; N-glycosylated at Asn241
Test: nanoDSF thermal shift (Tycho NT.[…] nm)
Conditions: 20 mM ligand; 0.1 M sodium phosphate pH 6.5; indirect indication of binding

T1 sequence (A0A6G1IIU9 entry or part of it): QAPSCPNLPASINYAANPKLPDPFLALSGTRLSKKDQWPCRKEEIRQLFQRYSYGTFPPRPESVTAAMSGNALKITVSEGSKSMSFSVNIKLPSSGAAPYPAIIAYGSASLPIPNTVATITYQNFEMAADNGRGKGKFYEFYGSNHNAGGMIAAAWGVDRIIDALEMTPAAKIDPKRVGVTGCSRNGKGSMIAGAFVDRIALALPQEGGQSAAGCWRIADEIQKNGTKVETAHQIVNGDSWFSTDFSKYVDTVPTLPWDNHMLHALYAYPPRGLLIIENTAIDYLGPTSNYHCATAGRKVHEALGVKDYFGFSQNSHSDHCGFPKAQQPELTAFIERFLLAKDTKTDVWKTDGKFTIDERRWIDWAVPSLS

O=C(OCc1ccccc1)[C@H]1OC(O)[C@H](O)[C@@H](O)[C@@H]1O (stereo partly shown) [BnzGlcA, benzyl glucuronate]
Ti shift: A decrease in T i was observed with BnzGlcA
